The conditions of data set [1]: in conventional solvents, cited from earlier work.
Data set [2] in a line: Solubility of CIPC in solvents / terpenes. Type of data set: physicochemical. Conditions: with terpenes/terpene oils, at ambient temperature and as low as 0° C. The method, then:
Furthermore, CIPC dissolves with difficulty in conventional solvents, and maximum CIPC concentrations of approximately 30% (weight/volume) are generally obtained. At best, concentrations of approximately 54% at […] have been obtained. This low solubility entails the use of large amounts of solvent and/or formulation in order to obtain the required amounts of active ingredient. Nevertheless, efforts are generally made to limit the use of these solvents owing to their inherent toxicity and/or the danger of use that they entail, especially as a result of their low boiling points, which result in high risks of flammability.
It has now been discovered, and this is one of the subjects of the present invention, that terpenes and/or terpene oils, in particular eugenol, isoeugenol or clove oil, have a high capacity to dissolve CIPC, even in cases in which the two agents are applied separately. In particular, the use of terpenes and/or terpene oils of this type, applied before or after the CIPC, allows improved distribution of the CIPC on the potatoes. The separate application of the terpene or terpene oil therefore allows improved application, and accordingly penetration and efficacy, of the CIPC. […]

A further data set deals with potatoes. The following applies: cited from earlier work; for Inhibition of tuber sprouts: in combination with CIPC.

`CC(C)OC(=O)Nc1cccc(Cl)c1` [CIPC, 3-chlorophenylisopropylcarbamate]: in data set [1] (at 180° C.), the “CIPC concentration, at best” value is recorded as “approximately 54%”. For the same compound, the “Maximum CIPC concentration” value in data set [1] is given as “approximately 30 % (weight/volume)”. Moreover, the CIPC concentration entry in data set [2] was “greater than 50 % by weight of CIPC relative to the total volume of the solution”. As for `C=C(C)C1CC=C(C)C(=O)C1` (stereo not drawn) [carvone], in the data set on potatoes (dosage of 16.6 ppm, agent on its own), the “Treated batches of potatoes suitable for sale” value was 0%. `CC/C=C\CC1=C(C)CCC1=O` [jasmone]: the “Inhibition of tuber sprouts” value with potatoes is reported as “does not produce positive results”. For `C=C(C)[C@H]1CC=C(C)CC1` [limonene], the “Inhibition of tuber sprouts” value with potatoes is listed as “does not produce positive results”.

These data come from patent US8207090B2, “Process for the anti-germination and/or biocide treatment of bulbs or tubers by means of CIPC and a terpene or terpene oil” (Xeda International, priority 2005, dated 2012).
